Values quoted from earlier work in patent publication US20210319872A1, “DRUG AND DEVICE COMBINATION PRODUCTS WITH IMPROVED SAFETY AND EFFICACY PROFILES” (priority 2016, published 2021).
Where two headings read alike, the source gives them in different places.

[1] = nonvalvular atrial fibrillation
[2] = refractory oropharyngeal candidiasis

In the case of `O=C1CN=C(c2ccccc2Cl)c2cc([N+](=O)[O-])ccc2N1` [Klonopin (clonazepam)], the Ataxia (in vivo) is given as “Neurologic: Ataxia (5% to 30%), Coordination problem (6%),”, the Coordination problem (in vivo) is given as “Neurologic: Ataxia (5% to 30%), Coordination problem (6%),” and the Depression (in vivo) is given as “Psychiatric: Depression (7%), Suicidal thoughts”. The Dizziness (in vivo) was “Dizziness (8%), Somnolence (37% to 50%)”, the Fatigue (in vivo) was “Other: Fatigue (7%)” and the Problem behavior (in vivo) was “Psychiatric: Problem behavior (25%)”. The “Serious side effect, Psychiatric” value (in vivo) was “Psychiatric: Depression (7%), Suicidal thoughts”, the “Serious side effect, Respiratory” value (in vivo) was “Respiratory: Respiratory depression” and the Somnolence (in vivo) was “Dizziness (8%), Somnolence (37% to 50%)”. For the same molecule, the Upper respiratory infection (in vivo) was “Respiratory: Upper respiratory infection (8%)”.

In the case of `CCCc1nc2c(C)cc(-c3nc4ccccc4n3C)cc2n1Cc1ccc(-c2ccccc2C(=O)O)cc1` [Telmisartan (Micardis))], the Cough (in vivo) is listed as “Respiratory: Cough (1.6% to 15.6%), Upper respiratory infection”, the “Serious side effects, listed without incidence or only as rare” value (in vivo) is listed as “Musculoskeletal: Rhabdomyolysis (rare)” and the Upper respiratory infection (in vivo) is listed as “(7%)”.

In the case of `O=[N+]([O-])OCC(CO[N+](=O)[O-])O[N+](=O)[O-]` [Nitrates (Nitroglycerin)], the “Common side effect listed (incidence not given)” value (in vivo) is given as “Dermatologic: Flushing”, the “Dizziness (incidence)” value (in vivo) is given as “Neurologic: Dizziness (5%), Headache (63% to 64%),” and the “Headache (incidence)” value (in vivo) is given as “Neurologic: Dizziness (5%), Headache (63% to 64%),”. The “Hypotension (incidence)” value (in vivo) was “Cardiovascular: Hypotension (4%)” and the “Lightheadedness (incidence)” value (in vivo) was “Lightheadedness (6%)”.

For `CCOC(=O)[C@H](CCc1ccccc1)N[C@H]1CCc2ccccc2N(CC(=O)O)C1=O` [Benazepril (Lotensin)], the “Angioedema, head and neck” value (in vivo) is listed as “Other: Angioedema, head and neck (0.5%)”, the Cough (in vivo) is listed as “Respiratory: Cough (1.2%)” and the Dizziness (in vivo) is listed as “Neurologic: Dizziness (3.6%), Headache (6.2%)”. The Fatigue (in vivo) was “Other: Fatigue (2.4%)”, the Headache (in vivo) was “Neurologic: Dizziness (3.6%), Headache (6.2%)” and the Stevens-Johnson syndrome (in vivo) was “Dermatologic: Stevens-Johnson syndrome (less than 1%)”.

In the case of `CC1(C)O[C@@H]2[C@@H](CO[C@@]3(COS(N)(=O)=O)OC(C)(C)O[C@@H]23)O1` [Trokendi XR], the Hyperammonemia (Adolescents) is given as “Endocrine metabolic: Hyperammonemia (Adolescents, 26%),”, the “Serious side effect, Hepatic” value (listed without frequency) is given as “Hepatic: Liver failure” and the “Serious side effect, Neurologic” value (listed without frequency) is given as “Neurologic: Drug-induced encephalopathy”. For the same molecule, the “Serious side effect, Psychiatric” value (listed without frequency) was “Psychiatric: Suicidal thoughts” and the Flushing (pediatrics) was “Dermatologic: Flushing (pediatrics, 5%)”.

In the case of `CCCCCCOC(=O)NC(=N)c1ccc(NCc2nc3cc(C(=O)N(CCC(=O)OCC)c4ccccn4)ccc3n2C)cc1` [Pradaxa], the Gastroesophageal reflux disease (Atrial fibrillation) is given as “disease (Atrial fibrillation, 5.5%), Gastrointestinal hemorrhage”, the Indigestion (DVT and pulmonary embolism) is given as “pulmonary embolism, 7.5%)” and the Intracranial hemorrhage (DVT and pulmonary embolism) is given as 0.1%. For the same molecule, the Bleeding (DVT and pulmonary embolism prophylaxis) was 10.5%, the “Serious side effect, Hematologic” value (listed without frequency) was “Thrombosis” and the “Serious side effect, Immunologic” value (listed without frequency) was “Immunologic: Anaphylaxis”. The “Serious side effect, Respiratory” value (listed without frequency) was “Respiratory: Bleeding, Alveolar”, the Bleeding [1] was 16.6% and the “Bleeding, Major” value [1] was 3.3%. For the same molecule, the Gastrointestinal hemorrhage [1] was 6.1%, the “Gastrointestinal hemorrhage, Major” value [1] was 1.6%) and the Intracranial hemorrhage [1] was “(nonvalvular atrial fibrillation, 0.3%; DVT and pulmonary”. The Myocardial infarction [1] was 0.7%.

In the case of `C[C@H](CS)C(=O)N1CCC[C@H]1C(=O)O` [Captopril (Capoten)], the Agranulocytosis (in vivo) is given as “Hematologic: Agranulocytosis (0.1% to 0.2%), Neutropenia (0.1%”, the Angioedema (in vivo) is given as “Other: Angioedema (0.1%)” and the Cough (in vivo) is given as “Respiratory: Cough (0.5% to 2%)”. The Hyperkalemia (in vivo) was “Endocrine metabolic: Hyperkalemia (11%)” and the Neutropenia (in vivo) was “Hematologic: Agranulocytosis (0.1% to 0.2%), Neutropenia (0.1%”.

In the case of `COc1ccc(-n2nc(C(N)=O)c3c2C(=O)N(c2ccc(N4CCCCC4=O)cc2)CC3)cc1` [Apixaban (Eliquis)], the Bleeding gums (in vivo) is listed as “Gastrointestinal: Bleeding gums (Less than 0.1% to 1.4%)”, the “Bleeding, Major” value (in vivo) is listed as “prophylaxis, 2.88% to 4.83%), Bleeding, Major (0.1% to 2.13%),” and the Conjunctival hemorrhage (in vivo) is listed as “Ophthalmic: Conjunctival hemorrhage (0.1% to less than 1%),”. The Contusion (in vivo) was “Dermatologic: Contusion (1.4% to 2.2%)”, the Hematochezia (in vivo) was “pulmonary embolism, 0.1% to less than 1%), Hematochezia (0.1%” and the Hematoma (in vivo) was “Hematologic: Hematoma (DVT, 1.3% to 1.5%)”. The Hemorrhage (in vivo) was “Hemorrhage (0.1% to 1.4%), Hemorrhage, Operative (DVT”, the Hemorrhage of muscle (in vivo) was “Musculoskeletal: Hemorrhage of muscle (Less than 0.1% to less” and the “Hemorrhage, Operative” value (in vivo) was “prophylaxis, 0.1% to less than 1%)”. For the same molecule, the Hypersensitivity reaction (in vivo) was less than 1%), the Intracranial hemorrhage (in vivo) was “fibrillation, 0.33% to 0.34%/year), Non-traumatic spinal subdural” and the Intraocular hemorrhage (in vivo) was “Intraocular hemorrhage (Less than 0.1% to less than 1%), Retinal”. For the same molecule, the “Liver function tests abnormal” value (in vivo) was 0.1% to less than 1%), Serum bilirubin raised (DVT prophylaxis,, the Menorrhagia (in vivo) was “Reproductive: Menorrhagia (1.4%)” and the Retinal hemorrhage (in vivo) was “hemorrhage (0.1% to less than 1%)”. For the same molecule, the Serum bilirubin raised (in vivo) was 0.1% to less than 1%).

For `Cc1ccsc1C(=CCCN1CCC[C@@H](C(=O)O)C1)c1sccc1C` [Gabitril], the Confusion (in vivo) is given as 5%, the Disturbance in speech (in vivo) is given as 4% and the Nausea (in vivo) is given as 11%. The Pruritus (in vivo) was “Dermatologic: Pruritus (2%)”, the “Serious side effect, Dermatologic” value (listed without frequency) was “Dermatologic: Stevens-Johnson syndrome” and the “Serious side effect, Neurologic” value (listed without frequency) was “Seizure, in patients without epilepsy”. For the same molecule, the “Serious side effect, Psychiatric” value (listed without frequency) was “Psychiatric: Suicidal thoughts”.

For `O=C(Nc1c(Cl)cncc1Cl)c1ccc(OC(F)F)c(OCC2CC2)c1` [Daliresp], the Backache (in vivo) is listed as “Musculoskeletal: Backache (3.2%)”, the Decrease in appetite (in vivo) is listed as 2.1% and the Diarrhea (in vivo) is listed as 9.5%. For the same molecule, the Dizziness (in vivo) was 2.1%, the Headache (in vivo) was 4.4% and the Influenza (in vivo) was “Immunologic: Influenza (2.8%)”. For the same molecule, the Insomnia (in vivo) was 2.4%, the Nausea (in vivo) was “Nausea (4.7%)” and the “Serious side effect, Psychiatric” value (listed without frequency) was “Psychiatric: Suicidal thoughts”.

For `CC[C@@H]([C@H](C)O)n1ncn(-c2ccc(N3CCN(c4ccc(OC[C@@H]5CO[C@@](Cn6cncn6)(c6ccc(F)cc6F)C5)cc4)CC3)cc2)c1=O` [Noxafil], the Cholestasis (frequency in words) is listed as “Hepatic: Cholestasis (rare), Liver failure (rare)”, the Liver failure (frequency in words) is listed as “Hepatic: Cholestasis (rare), Liver failure (rare)” and the Torsades de pointes (in vivo) is listed as “pointes (less than 5%)”. For the same molecule, the Diarrhea (oropharyngeal candidiasis) was “oropharyngeal candidiasis, 10%; refractory oropharyngeal”, the Fever (oropharyngeal candidiasis) was 6% and the Headache (oropharyngeal candidiasis) was 8%. For the same molecule, the Nausea (oropharyngeal candidiasis) was “oropharyngeal candidiasis, 9%; refractory oropharyngeal”, the Vomiting (oropharyngeal candidiasis) was “oropharyngeal candidiasis, 7%; refractory oropharyngeal” and the Diarrhea [2] was 13%. For the same molecule, the Fever [2] was 34%, the Headache [2] was 20% and the Nausea [2] was 29%. For the same molecule, the Vomiting [2] was “candidiasis, 28%)”.

For `NS(=O)(=O)c1cc(C(=O)O)c(NCc2ccco2)cc1Cl` [Furosemide (Lasix)], the “Hyperuricemia (incidence)” value (in vivo) is given as “Endocrine metabolic: Hyperuricemia (40%), Hypomagnesemia”.
